What is called solubility (kinetic) is the concentration staying in solution when a stock, usually in DMSO, is diluted into the medium.

Data set [1] in a line: solid state stability: storage at 25° C./60% RH and 40° C./75% RH for 1 week, XRPD and HPLC purity. The class given is physicochemical. Conditions: for Purity (area %): HPLC purity; for Form change: XRPD; for HPLC purity change after storage: 40° C./75% RH for 1 week. Here is the method:
For XRPD analysis, Empyrean X-ray powder diffractometer from Malvern Panalytical was used. Sample was spread on the middle of a zero-background Si holder.
XRPD and HPLC purity was performed for stability samples to assess the physical and chemical stability.

The nature of a further data set: hygroscopicity by DVS. Type of data set: physicochemical. Here is the method:
Hygroscopicity of Freeform Form A, HCl Form A, Besylate Form B, and Gentisate Form A was evaluated by DVS.

For data set [2], the target named is sodium-dependent serotonin transporter (SERT) (Homo sapiens, UniProt P31645). Conditions: reported for the naturally occurring compound from Sceletium tortuosum; cited from earlier work.
The nature of data set [3]: solubility of Freeform Form A in solvents. Type of data set: physicochemical. The source says:
Freeform Form A was a gum material. The material had the solubility shown below:

A short description of data set [4]: kinetic solubility in H2O and bio-relevant media (SGF, FaSSIF, FeSSIF) at 37° C. Type of data set: physicochemical. The conditions noted are these: thermodynamic from solid; for solubility: 37 °C, read-out: observed solubility; for solubility kinetic / solubility at 1 h / solubility at 2 h / solubility at 4 h / solubility at 24 h: 37° C.; for solubility kinetic: at 1, 2, 4 and 24 hrs; for solubility at 1 h / solubility at 2 h / solubility at 4 h / solubility at 24 h: read-out: S: Solubility (mg/mL), calculated by freebase. Here is the method: • 1. Add about 40 mg of samples and 4 mL of corresponding medium into a 5-mL glass vial. The loading concentration was ˜10 mg/mL (calculated by freebase). • 2. Roll at 37° C. (˜25 rpm). Sample at 1, 2, 4 and 24 hrs. • 3. At each time-point, sample 0.8 mL of solution or suspension into a centrifuge tube prior to centrifugation (12000 rpm, 37° C., 5 min) and filtration through 0.45 μm PTFE membrane. • 4. Test pH and concentration for the filtrate. Analyze residual solids by XRPD.

In brackets after ≈: the same amount, converted by molar mass. Entries after “also recorded” stand apart in the source; their conditions may differ. Where two headings read alike, the source gives them in different places. A value given as a limit tells only on which side of the number the result lay.

Sequence of sodium-dependent serotonin transporter (SERT) (P31645 whole entry, species assumed): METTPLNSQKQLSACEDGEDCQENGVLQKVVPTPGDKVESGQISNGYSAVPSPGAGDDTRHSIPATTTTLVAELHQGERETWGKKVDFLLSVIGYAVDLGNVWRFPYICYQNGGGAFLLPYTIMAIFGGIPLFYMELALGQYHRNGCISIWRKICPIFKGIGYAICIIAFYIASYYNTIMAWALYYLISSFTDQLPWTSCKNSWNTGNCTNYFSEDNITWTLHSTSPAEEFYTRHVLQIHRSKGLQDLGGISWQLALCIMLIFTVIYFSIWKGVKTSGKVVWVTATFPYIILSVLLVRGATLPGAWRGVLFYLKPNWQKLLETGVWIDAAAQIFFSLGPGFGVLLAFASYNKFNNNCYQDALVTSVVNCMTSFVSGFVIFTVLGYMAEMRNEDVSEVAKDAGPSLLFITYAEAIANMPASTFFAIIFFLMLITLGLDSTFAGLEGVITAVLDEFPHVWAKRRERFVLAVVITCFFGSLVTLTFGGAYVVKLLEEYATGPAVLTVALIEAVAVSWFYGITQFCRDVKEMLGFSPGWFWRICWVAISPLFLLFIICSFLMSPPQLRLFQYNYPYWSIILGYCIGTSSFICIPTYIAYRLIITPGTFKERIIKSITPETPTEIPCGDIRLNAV

As for `COc1ccc([C@@]23CCC(=O)C[C@@H]2N(C)CC3)cc1OC.O=C(O)c1cc(O)ccc1O` [Gentisate Form A], in data set [1] (25° C./60% RH/open/1 week), the “form change by XRPD after storage” value was “no form change”, the “Purity (area %)” value amounted to 97.18 area % and the Form change entry is “No”. Further, the “HPLC purity change after storage” value in data set [1] is reported as “slight purity decrease”. For the same molecule, in data set [1] (40° C./75% RH/open/1 week), the “form change by XRPD after storage” value is on record as “no form change”, the “Purity (area %)” value turned out to be 97.11 area % and the Form change result is reported as “No”. For the same molecule, in data set [1] (Initial), the “Purity (area %)” value is on record as 97.22 area %. In “hygroscopicity by DVS” (DVS), the “Water uptake at 25° C./80% RH (wt %)” value amounted to 0.17 wt % and the “water uptake at 25° C./80% RH” value is given as 0.17%. The “Form change by XRPD after DVS test” value in the data set “hygroscopicity by DVS” is “No form change and No”.

As for `COc1ccc([C@@]23CCC(=O)C[C@@H]2N(C)CC3)cc1OC` [Compound 1, 3a-(3,4-dimethoxyphenyl)-octahydro-1-methyl-6H-indol-6-one], the “serotonin (5-HT) uptake inhibitory activity” value in data set [2] is “serotonin (5-HT) uptake inhibitory activity”.

Turning to `COc1ccc([C@@]23CCC(=O)C[C@@H]2N(C)CC3)cc1OC.O=S(=O)(O)c1ccccc1` [Besylate Form B], in data set [1] (25° C./60% RH/open/1 week), the “form change by XRPD after storage” value was “no form change”, the “Purity (area %)” value is 97.16 area % and the Form change result is “No”. Also, the “HPLC purity change after storage” value in data set [1] is listed as “slight purity decrease”. Further, in data set [1] (40° C./75% RH/open/1 week), the “form change by XRPD after storage” value was “no form change”, the “Purity (area %)” value came out at 97.12 area % and the Form change result is “No”. For the same molecule, the “Purity (area %)” value in data set [1] (Initial) was determined as 97.21 area %. Further, in “hygroscopicity by DVS” (DVS), the “Water uptake at 25° C./80% RH (wt %)” value came to 0.32 wt % and the “water uptake at 25° C./80% RH” value is given as 0.32%. Also, the “Form change by XRPD after DVS test” value in the data set “hygroscopicity by DVS” was “No form change and No”.

For the molecule `COc1ccc([C@@]23CCC(=O)C[C@@H]2N(C)CC3)cc1OC` [Freeform Form A], the solubility in data set [3] (1,4-Dioxane, organic solvent or mixture) was over 40 mg/mL; in data set [3] (2-MeTHF, organic solvent or mixture) it was over 40 mg/mL; in data set [3] (ACN, organic solvent or mixture) it was over 44 mg/mL; in data set [3] (Acetone, organic solvent or mixture) it was over 40 mg/mL; in data set [3] (CPME, organic solvent or mixture), over 40 mg/mL; in data set [3] (DCM, organic solvent or mixture), over 42 mg/mL. Also, the solubility was 19 to 38 mg/mL (≈ 65.7 to 131 mM) in data set [3] (EtOAc, organic solvent or mixture); over 42 mg/mL in data set [3] (EtOH, organic solvent or mixture); over 42 mg/mL in data set [3] (H2O, water); over 38 mg/mL in data set [3] (IPA, organic solvent or mixture); over 36 mg/mL in data set [3] (IPAc, organic solvent or mixture); over 38 mg/mL in data set [3] (MIBK, organic solvent or mixture). The solubility in data set [3] (MTBE, organic solvent or mixture) is over 40 mg/mL; in data set [3] (MeOH, organic solvent or mixture), over 36 mg/mL; in data set [3] (THF, organic solvent or mixture), over 44 mg/mL; in data set [4] (simulated gastric fluid, in SGF) it was over 8300 µg/mL; in data set [4] (in FaSSIF), over 8300 µg/mL; in data set [4] (in FeSSIF) it was over 8300 µg/mL. In data set [4] (water, in H2O), the solubility is over 8300 µg/mL. Moreover, the “form change by XRPD after storage” value in data set [1] (25° C./60% RH/open/1 week) and in data set [1] (40° C./75% RH/open/1 week) was “amorphous” in each case. Also, the “Purity (area %)” value in data set [1] (25° C./60% RH/open/1 week) came out at 98.14 area %; in data set [1] (40° C./75% RH/open/1 week) it was 98.01 area %; in data set [1] (Initial), 98.15 area %. Also, the Form change entry in data set [1] (25° C./60% RH/open/1 week) and in data set [1] (40° C./75% RH/open/1 week) was “Amorphous” throughout. In addition, the “HPLC purity change after storage” value in data set [1] was “slight purity decrease”. Besides, the “Form change by XRPD after DVS test” value in the data set “hygroscopicity by DVS” was “amorphous; also recorded: Amorphous*”. The “behaviour during DVS test” value in the data set “hygroscopicity by DVS” (during DVS test) is “deliquesced”. Also, the solubility (kinetic) was over 8300 µg/mL in data set [4] (simulated gastric fluid, SGF); over 8300 µg/mL in data set [4] (FaSSIF); over 8300 µg/mL in data set [4] (FeSSIF); over 8300 µg/mL in data set [4] (water, H2O). The solubility at 1 h is over 8.6 mg/mL in data set [4] (simulated gastric fluid, SGF); over 8.7 mg/mL in data set [4] (FaSSIF); over 8.7 mg/mL in data set [4] (FeSSIF); over 9.1 mg/mL in data set [4] (water, H2O). Moreover, the solubility at 2 h was over 9.2 mg/mL in data set [4] (simulated gastric fluid, SGF); over 8.7 mg/mL in data set [4] (FaSSIF); over 9.8 mg/mL in data set [4] (FeSSIF); over 9.3 mg/mL in data set [4] (water, H2O). Besides, the solubility at 4 h in data set [4] (simulated gastric fluid, SGF) is over 8.4 mg/mL; in data set [4] (FaSSIF), over 8.3 mg/mL; in data set [4] (FeSSIF), over 9.1 mg/mL; in data set [4] (water, H2O), over 9.4 mg/mL. For the same molecule, the solubility at 24 h was over 8.7 mg/mL in data set [4] (simulated gastric fluid, SGF); over 8.5 mg/mL in data set [4] (FaSSIF); over 9.9 mg/mL in data set [4] (FeSSIF); over 9.3 mg/mL in data set [4] (water, H2O).

With `COc1ccc(C23CCC(=O)CC2N(C)CC3)cc1OC.Cl` (stereo not shown) [HCl Form A], the “form change by XRPD after storage” value in data set [1] (25° C./60% RH/open/1 week) and in data set [1] (40° C./75% RH/open/1 week) was “no form change” each time. Moreover, the figures for the “Purity (area %)” value in data set [1] (25° C./60% RH/open/1 week), in data set [1] (40° C./75% RH/open/1 week) and in data set [1] (Initial) were 97.06 area %, 97.00 area % and 97.15 area %, respectively. The Form change result in data set [1] (25° C./60% RH/open/1 week) and in data set [1] (40° C./75% RH/open/1 week) was “No” throughout. Also, the “HPLC purity change after storage” value in data set [1] was “slight purity decrease”. Moreover, the “Water uptake at 25° C./80% RH (wt %)” value in “hygroscopicity by DVS” (DVS) amounted to 0.72 wt %. Further, the “water uptake at 25° C./80% RH” value in “hygroscopicity by DVS” (DVS) was 0.72%. Also, the “water uptake at 95% RH” value in “hygroscopicity by DVS” (DVS, 95% RH) worked out at 18.46%. The “Form change by XRPD after DVS test” value in the data set “hygroscopicity by DVS” was “No form change”; in the data set “hygroscopicity by DVS” (listed as HCl salt Form A), “No form change and No”.

The values are drawn from US20250026718A1, “SOLID FORMS OF MESEMBRINE AND THERAPEUTIC USES THEREOF” (Sensorium Therapeutics, Inc., priority 2022, published 2025).
